Source: PubChem BioAssay AID2060483 (Molecular Pharmacology Branch, DTP, NCI, 2025)

Tested on: K24384-001-R-PDC complex spheroids, viability
Test: Anticancer human tumor K24384-001-R-PDC patient-derived pancreatic adenocarcinoma cell line growth inhibition [GQUAD]
Conditions: for IC50: curve of first compound; for viability, T/C: stronger effect = lower value
In short: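 Multi-cell-type spheroids of tumor cells with HUVEC and mesenchymal stem cells, treated with drug combinations. Concentrations descend in half-log steps from near clinical Cmax, or from 10 microM where Cmax is unknown; viability read-out.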

[1] = second compound 0.0316 µM, first compound 0.0316 µM
[2] = second compound 0.0316 µM, first compound 0.1 µM
[3] = second compound 0.0316 µM, first compound 0.316 µM
[4] = second compound 0.0316 µM, first compound 1 µM
[5] = second compound 0.0316 µM, first compound 3.16 µM
[6] = second compound 0.0316 µM, first compound 10 µM
[7] = second compound 0.1 µM, first compound 0.0316 µM
[8] = second compound 0.1 µM, first compound 0.1 µM
[9] = second compound 0.1 µM, first compound 0.316 µM
[10] = second compound 0.1 µM, first compound 1 µM
[11] = second compound 0.1 µM, first compound 3.16 µM
[12] = second compound 0.1 µM, first compound 10 µM
[13] = second compound 0.316 µM, first compound 0.0316 µM
[14] = second compound 0.316 µM, first compound 0.1 µM
[15] = second compound 0.316 µM, first compound 0.316 µM
[16] = second compound 0.316 µM, first compound 1 µM
[17] = second compound 0.316 µM, first compound 3.16 µM
[18] = second compound 0.316 µM, first compound 10 µM
[19] = second compound 1 µM, first compound 0.0316 µM
[20] = second compound 1 µM, first compound 0.1 µM
[21] = second compound 1 µM, first compound 0.316 µM
[22] = second compound 1 µM, first compound 1 µM
[23] = second compound 1 µM, first compound 3.16 µM
[24] = second compound 1 µM, first compound 10 µM
[25] = second compound 3.16 µM, first compound 0.0316 µM
[26] = second compound 3.16 µM, first compound 0.1 µM
[27] = second compound 3.16 µM, first compound 0.316 µM
[28] = second compound 3.16 µM, first compound 1 µM
[29] = second compound 3.16 µM, first compound 3.16 µM
[30] = second compound 3.16 µM, first compound 10 µM
[31] = second compound 10 µM, first compound 0.0316 µM
[32] = second compound 10 µM, first compound 0.1 µM
[33] = second compound 10 µM, first compound 0.316 µM
[34] = second compound 10 µM, first compound 1 µM
[35] = second compound 10 µM, first compound 3.16 µM
[36] = second compound 10 µM, first compound 10 µM
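Also: spheroids exposed to compounds for seven days.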

Molecule CC(C)(O)C1CCC(Nc2ccc3ncc(-c4cccc(C(F)(F)F)c4)n3n2)CC1 (stereo unspecified) + Cc1cnc(CNC(=O)c2c(=O)c3ccc(N4CCCN(C)CC4)nc3n3c2sc2ccccc23)cn1 has an IC50 (second compound 0.0316 µM) of 1720 nM, an IC50 (second compound 0.1 µM) of 1680 nM and an IC50 (second compound 0.316 µM) of 31.6 nM. The IC50 (second compound 1 µM) was less than 31.6 nM, the IC50 (second compound 3.16 µM) was less than 31.6 nM and the IC50 (second compound 10 µM) was less than 31.6 nM. For the same molecule, the viability, T/C [1] was 89%, the viability, T/C [2] was 85.6% and the viability, T/C [3] was 90.3%. The viability, T/C [4] was 69.2%, the viability, T/C [5] was 26.6% and the viability, T/C [6] was 30.2%. For the same molecule, the viability, T/C [7] was 55.6%, the viability, T/C [8] was 75.8% and the viability, T/C [9] was 72.7%. For the same molecule, the viability, T/C [10] was 76.4%, the viability, T/C [11] was 22.4% and the viability, T/C [12] was 28.3%. It also gave a viability, T/C [13] of 42.4%, a viability, T/C [14] of 49.8% and a viability, T/C [15] of 46%. The viability, T/C [16] was 60.9%, the viability, T/C [17] was 28.8% and the viability, T/C [18] was 28.1%. It also gave a viability, T/C [19] of 37.1%, a viability, T/C [20] of 53% and a viability, T/C [21] of 36.4%. It also gave a viability, T/C [22] of 42.4%, a viability, T/C [23] of 22.3% and a viability, T/C [24] of 15.1%. The viability, T/C [25] was 30.4%, the viability, T/C [26] was 40.3% and the viability, T/C [27] was 36.9%. For the same molecule, the viability, T/C [28] was 37.7%, the viability, T/C [29] was 0.14% and the viability, T/C [30] was 0.16%. For the same molecule, the viability, T/C [31] was 12.8%, the viability, T/C [32] was 12.9% and the viability, T/C [33] was 5.01%. It also gave a viability, T/C [34] of 0.25%, a viability, T/C [35] of 0.24% and a viability, T/C [36] of 0.23%.
Work on CCCS(=O)(=O)Nc1ccc(F)c(C(=O)c2c[nH]c3ncc(-c4ccc(Cl)cc4)cc23)c1F + Cc1cnc(CNC(=O)c2c(=O)c3ccc(N4CCCN(C)CC4)nc3n3c2sc2ccccc23)cn1 yielded an IC50 (second compound 0.0316 µM) of 8050 nM, an IC50 (second compound 0.1 µM) of 6380 nM and an IC50 (second compound 0.316 µM) greater than 10000 nM. It also gave an IC50 (second compound 1 µM) of less than 31.6 nM, an IC50 (second compound 3.16 µM) of less than 31.6 nM and an IC50 (second compound 10 µM) of less than 31.6 nM. The viability, T/C [1] was 78%, the viability, T/C [2] was 84.4% and the viability, T/C [3] was 113%. It also gave a viability, T/C [4] of 93.8%, a viability, T/C [5] of 105% and a viability, T/C [6] of 39.5%. It also gave a viability, T/C [7] of 50.8%, a viability, T/C [8] of 84.2% and a viability, T/C [9] of 63.4%. For the same molecule, the viability, T/C [10] was 90.9%, the viability, T/C [11] was 90.6% and the viability, T/C [12] was 33.5%. It also gave a viability, T/C [13] of 48.5%, a viability, T/C [14] of 56.8% and a viability, T/C [15] of 62%. It also gave a viability, T/C [16] of 64.8%, a viability, T/C [17] of 65.9% and a viability, T/C [18] of 31.1%. For the same molecule, the viability, T/C [19] was 37.2%, the viability, T/C [20] was 36% and the viability, T/C [21] was 33.6%. It also gave a viability, T/C [22] of 48.3%, a viability, T/C [23] of 60.2% and a viability, T/C [24] of 29%. It also gave a viability, T/C [25] of 39.4%, a viability, T/C [26] of 35.2% and a viability, T/C [27] of 37.1%. For the same molecule, the viability, T/C [28] was 34.6%, the viability, T/C [29] was 39.5% and the viability, T/C [30] was 16.2%. For the same molecule, the viability, T/C [31] was 0.22%, the viability, T/C [32] was 0.41% and the viability, T/C [33] was 0.78%. It also gave a viability, T/C [34] of 0.33%, a viability, T/C [35] of 0.23% and a viability, T/C [36] of 0.18%.
COc1ncnc(C2CC2)c1-c1ncc2cnn(Cc3ccc(-c4nc(C(F)(F)F)cn4C(C)C)cc3)c2n1 + Cc1cnc(CNC(=O)c2c(=O)c3ccc(N4CCCN(C)CC4)nc3n3c2sc2ccccc23)cn1 showed an IC50 (second compound 0.0316 µM) greater than 10000 nM, an IC50 (second compound 0.1 µM) greater than 10000 nM and an IC50 (second compound 0.316 µM) of less than 31.6 nM. For the same molecule, the IC50 (second compound 1 µM) was less than 31.6 nM, the IC50 (second compound 3.16 µM) was less than 31.6 nM and the IC50 (second compound 10 µM) was less than 31.6 nM. It also gave a viability, T/C [1] of 85.9%, a viability, T/C [2] of 90.3% and a viability, T/C [3] of 78%. It also gave a viability, T/C [4] of 84.6%, a viability, T/C [5] of 69.1% and a viability, T/C [6] of 94.5%. For the same molecule, the viability, T/C [7] was 46.1%, the viability, T/C [8] was 71% and the viability, T/C [9] was 71.6%. It also gave a viability, T/C [10] of 52.2%, a viability, T/C [11] of 57.4% and a viability, T/C [12] of 79.5%. It also gave a viability, T/C [13] of 44.5%, a viability, T/C [14] of 43.5% and a viability, T/C [15] of 43.3%. It also gave a viability, T/C [16] of 43.2%, a viability, T/C [17] of 65.1% and a viability, T/C [18] of 46.4%. It also gave a viability, T/C [19] of 43.6%, a viability, T/C [20] of 46.7% and a viability, T/C [21] of 41%. For the same molecule, the viability, T/C [22] was 44.7%, the viability, T/C [23] was 42.9% and the viability, T/C [24] was 36.1%. The viability, T/C [25] was 31.5%, the viability, T/C [26] was 34% and the viability, T/C [27] was 33%. It also gave a viability, T/C [28] of 42.1%, a viability, T/C [29] of 39.1% and a viability, T/C [30] of 29%. It also gave a viability, T/C [31] of 24%, a viability, T/C [32] of 13.7% and a viability, T/C [33] of 23.1%. The viability, T/C [34] was 20.8%, the viability, T/C [35] was 17.1% and the viability, T/C [36] was 0.33%.
